Experiment in all cases: Intact protein mass spectrometry
Holding throughout (assay type): binding

One experiment has as its target T1, UCHL3 A11I (Homo sapiens, UniProt P15374, A11I).
T1 sequence (P15374 1-230 A11I): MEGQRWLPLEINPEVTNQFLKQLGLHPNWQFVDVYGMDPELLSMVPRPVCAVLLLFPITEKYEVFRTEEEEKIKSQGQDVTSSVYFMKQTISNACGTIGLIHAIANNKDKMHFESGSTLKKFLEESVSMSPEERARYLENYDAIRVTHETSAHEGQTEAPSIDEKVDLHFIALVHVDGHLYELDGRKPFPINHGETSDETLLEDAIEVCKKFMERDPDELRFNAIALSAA
As to conditions: enzyme 3 µM; compound 10 µM; 1 h. The source says: (§1) Spectra were deconvoluted with ProMass (Enovatia).

Another experiment addresses T2, UCHL1 (Homo sapiens, UniProt P09936).
T2 sequence (P09936 1-223): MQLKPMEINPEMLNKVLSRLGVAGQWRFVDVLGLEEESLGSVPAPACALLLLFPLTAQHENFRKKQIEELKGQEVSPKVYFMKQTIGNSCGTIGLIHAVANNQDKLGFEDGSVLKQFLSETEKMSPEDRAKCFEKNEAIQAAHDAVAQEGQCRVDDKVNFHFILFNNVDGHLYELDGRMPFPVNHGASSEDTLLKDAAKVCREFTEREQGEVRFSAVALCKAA
As to conditions: compound 10 µM.
Excerpt: as §1

A further experiment deals with T3, UCHL3 (Homo sapiens, UniProt P15374).
T3 sequence (P15374 1-230): T1 sequence (P15374 1-230 A11I) with I11A
As to conditions: enzyme 3 µM; compound 10 µM; 1 h.
Excerpt: as §1

A further experiment has as its target T4, UCHL3 L168F (Homo sapiens, UniProt P15374, L168F).
T4 sequence (P15374 1-230 L168F): T1 sequence (P15374 1-230 A11I) with I11A, L168F
As to conditions: enzyme 3 µM; compound 10 µM; 1 h.
Excerpt: as §1

Residue numbers refer to the chain shown, from its start.

As to `C#CCCCNC(=O)c1ccc(-n2cnc(NC(=O)[C@H]3CCN(C#N)C3)c2)cc1` [GK13S], the “protein species observed after compound treatment” value at UCHL3 A11I is given as “free UCHL3 A11I”; on UCHL1 (enzyme 3 µM, 1 h), “UCHL1 + 1x GK13S”; at UCHL3, “free UCHL3”; at UCHL3 L168F it was “free UCHL3 L168F”. Besides, the “stoichiometry of covalent binding to UCHL1” value at UCHL1 (UCHL1 3 µM, 16 h) was “bound only once”.

For the origin of these results see paper PMC9549030, “Structural basis for specific inhibition of the deubiquitinase UCHL1” (Nature Communications, 2022).
